The results in this text go back to ChEMBL document CHEMBL6153165, “Clozapine as an E3 Ligand for PROTAC Technology” (ACS Med Chem Lett, 2025).

Active and inactive are the calls of the source. The rule behind the calls is not given here.

Assay [1] has as its system MCF7. Description: PROTAC activity at E3-ubiquitin ligase/ER-alpha expressed in human MCF7 cells assessed as decrease in ER-alpha protein level by measuring ER-alpha to beta actin ratio at 30 uM incubated for 24 hrs Western blotting analysis (reference value: 100%). The format is cell-based. Further details: scale not given: the % may be the effect or the level left.
Assay [2] deals with MCF7. Description: PROTAC activity at E3-ubiquitin ligase/ER-alpha expressed in UBR2 knockdown human MCF7 cells assessed as induction of ER-alpha degradation by measuring ER-alpha to beta actin ratio at 100 uM incubated for 24 hrs by Western blotting analysis (reference value: 100%). The assay is classed as cell-based. For orientation: A western blot detects proteins with antibodies after separation by electrophoresis.

Assay [3] deals with MCF7. The assay can be described thus: PROTAC activity at E3-ubiquitin ligase/ER-alpha expressed in human MCF7 cells assessed as induction of ER-alpha degradation by measuring ER-alpha to beta actin ratio at 100 uM incubated for 24 hrs by Western blotting analysis (reference value: 100%). The format is cell-based.
Assay [4] concerns MCF7. The assay can be described thus: PROTAC activity at E3-ubiquitin ligase/ER-alpha expressed in UBR1 knockdown human MCF7 cells assessed as induction of ER-alpha degradation by measuring ER-alpha to beta actin ratio at 30 uM incubated for 24 hrs by Western blotting analysis (reference value: 100%). The format is cell-based.
Assay [5] has as its system MCF7. Description: PROTAC activity at E3-ubiquitin ligase/ER-alpha expressed in human MCF7 cells assessed as decrease in ER-alpha protein level by measuring […] at 0.1 uM incubated for 24 hrs by Western blotting analysis (reference value: 100%). The format is cell-based. Also noted: scale not given: the % may be the effect or the level left.
For assay [6], the system named is MCF7. The assay can be described thus: PROTAC activity at E3-ubiquitin ligase/ER-alpha expressed in human MCF7 cells assessed as induction of ER-alpha degradation by measuring ER-alpha to beta actin ratio at 30 uM incubated for 24 hrs by Western blotting analysis (reference value: 100%). The format is cell-based.
Assay [7] concerns MCF7. Description: PROTAC activity at E3-ubiquitin ligase/ER-alpha expressed in UBR2 knockdown human MCF7 cells assessed as induction of ER-alpha degradation by measuring ER-alpha to beta actin ratio at 30 uM incubated for 24 hrs by Western blotting analysis (reference value: 100%). The assay is classed as cell-based.
Assay [8] has as its system MCF7. The assay can be described thus: PROTAC activity at E3-ubiquitin ligase/ER-alpha expressed in UBR1 knockdown human MCF7 cells assessed as induction of ER-alpha degradation by measuring ER-alpha to beta actin ratio at 100 uM incubated for 24 hrs by Western blotting analysis (reference value: 100%). The format is cell-based.
The test system of assay [9] is MCF7. The assay can be described thus: PROTAC activity at E3-ubiquitin ligase/ER-alpha expressed in human MCF7 cells assessed as decrease in ER-alpha protein level by measuring […] at 0.03 uM incubated for 24 hrs by Western blotting analysis (reference value: 100%). The assay is classed as cell-based. Further details: scale not given: the % may be the effect or the level left.

The subject of assay [10] is MCF7. Description: PROTAC activity at E3-ubiquitin ligase/ER-alpha expressed in human MCF7 cells assessed as decrease in ER-alpha protein level by measuring […] at 10 uM incubated for 24 hrs by Western blotting analysis (reference value: 100%). The assay is classed as cell-based. Also noted: scale not given: the % may be the effect or the level left.

Assay [11] has as its system MCF7. Description: PROTAC activity at E3-ubiquitin ligase/ER-alpha expressed in human MCF7 cells assessed as induction of ER-alpha degradation incubated for 24 hrs in presence of MG132 by measuring ER-alpha to beta actin ratio at 100 uM by Western blotting analysis (reference value: 100%). The format is cell-based.
Assay [12] concerns MCF7. Description: PROTAC activity at E3-ubiquitin ligase/ER-alpha expressed in human MCF7 cells assessed as decrease in ER-alpha protein level by measuring […] at 1 uM incubated for 24 hrs by Western blotting analysis (reference value: 100%). Further details: scale not given: the % may be the effect or the level left. The format is cell-based.
The subject of assay [13] is MCF7. The assay can be described thus: PROTAC activity at E3-ubiquitin ligase/ER-alpha expressed in human MCF7 cells assessed as induction of ER-alpha degradation incubated for 24 hrs in presence of MLN7243 by measuring ER-alpha to beta actin ratio at 100 uM by Western blotting analysis (reference value: 100%). The assay is classed as cell-based.
For assay [14], the system named is MCF7. Description: PROTAC activity at E3-ubiquitin ligase/ER-alpha expressed in human MCF7 cells assessed as decrease in ER-alpha protein level by measuring […] at 100 uM incubated for 24 hrs by Western blotting analysis (reference value: 100%). The format is cell-based. Further details: scale not given: the % may be the effect or the level left.

In assay [15] the test system is MCF7. The assay can be described thus: PROTAC activity at E3-ubiquitin ligase/ER-alpha expressed in human MCF7 cells assessed as decrease in ER-alpha protein level by measuring […] at 30 uM incubated for 24 hrs by Western blotting analysis (reference value: 100%). Also noted: scale not given: the % may be the effect or the level left. The assay is classed as cell-based.

The subject of assay [16] is MCF7. The assay can be described thus: PROTAC activity at E3-ubiquitin ligase/ER-alpha expressed in human MCF7 cells assessed as induction of ER-alpha degradation incubated for 24 hrs by measuring ER-alpha to beta actin ratio at 100 uM by Western blotting analysis (reference value: 100%). The assay is classed as cell-based.
Assay [17] relates to MCF7. Description: PROTAC activity at E3-ubiquitin ligase/ER-alpha expressed in UBR4 knockdown human MCF7 cells assessed as induction of ER-alpha degradation by measuring ER-alpha to beta actin ratio at 30 uM incubated for 24 hrs by Western blotting analysis (reference value: 16%). The assay is classed as cell-based.
For assay [18], the system named is MCF7. The assay can be described thus: PROTAC activity at E3-ubiquitin ligase/ER-alpha expressed in human MCF7 cells assessed as decrease in ER-alpha protein level by measuring […] at 0.3 uM incubated for 24 hrs by Western blotting analysis (reference value: 100%). Further details: scale not given: the % may be the effect or the level left. The assay is classed as cell-based.

The subject of assay [19] is MCF7. Description: PROTAC activity at E3-ubiquitin ligase/ER-alpha expressed in human MCF7 cells assessed as decrease in ER-alpha protein level by measuring […] at 3 uM incubated for 24 hrs by Western blotting analysis(reference value: 100%). The format is cell-based. Also noted: scale not given: the % may be the effect or the level left.
The subject of assay [20] is MCF7. Description: PROTAC activity at E3-ubiquitin ligase/ER-alpha expressed in UBR5 knockdown human MCF7 cells assessed as induction of ER-alpha degradation by measuring ER-alpha to beta actin ratio at 100 uM incubated for 24 hrs by Western blotting analysis (reference value: 41%). The assay is classed as cell-based.
Assay [21] deals with MCF7. Description: PROTAC activity at E3-ubiquitin ligase/ER-alpha expressed in human MCF7 cells assessed as induction of ER-alpha degradation incubated for 24 hrs in presence of MG132 by measuring ER-alpha to beta actin ratio at 30 uM by Western blotting analysis (reference value: 100%). The assay is classed as cell-based.
The test system of assay [22] is MCF7. Description: PROTAC activity at E3-ubiquitin ligase/ER-alpha expressed in UBR5 knockdown human MCF7 cells assessed as induction of ER-alpha degradation by measuring ER-alpha to beta actin ratio at 30 uM incubated for 24 hrs by Western blotting analysis (reference value: 16%). The format is cell-based.
Assay [23] has as its system MCF7. Description: Antiproliferative activity against human MCF7 cells assessed as inhibition of cell viability. The assay is classed as functional, cell-based. Conditions: dose 1-100 µM.
The subject of assay [24] is MCF7. The assay can be described thus: PROTAC activity at E3-ubiquitin ligase/ER-alpha expressed in human MCF7 cells assessed as induction of ER-alpha degradation incubated for 24 hrs in presence of MLN7243 by measuring ER-alpha to beta actin ratio at 30 uM by Western blotting analysis (reference value: 100%). The assay is classed as cell-based.
Assay [25] relates to MCF7. Description: PROTAC activity at E3-ubiquitin ligase/ER-alpha expressed in UBR4 knockdown human MCF7 cells assessed as induction of ER-alpha degradation by measuring ER-alpha to beta actin ratio at 100 uM incubated for 24 hrs by Western blotting analysis (reference value: 41%). The assay is classed as cell-based.
Assay [26] has as its system MCF7. The assay can be described thus: PROTAC activity at E3-ubiquitin ligase/ER-alpha expressed in human MCF7 cells assessed as induction of ER-alpha degradation incubated for 24 hrs by measuring ER-alpha to beta actin ratio at 30 uM by Western blotting analysis (reference value: 100%). The assay is classed as cell-based.
The test system of assay [27] is MCF7. The assay can be described thus: Induction of ER-alpha degradation (unknown origin) at 30 uM by measuring ER-alpha to beta actin ratio incubated for 24 hrs Western blotting analysis (reference value: 100%). The following applies: Homo sapiens. The format is cell-based.
The subject of assay [28] is HEK293. The assay can be described thus: PROTAC activity at E3-ubiquitin ligase/Halo-tagged Brazilian click beetle Emerald luciferase expressed in human HEK293 cells assessed as decrease in Halo-ELuc protein level by measuring Halo-Eluc to beta-actin ratio at 0.1 uM incubated for 24 hrs by luciferase based Western blotting analysis (reference value: 100%). The assay is classed as cell-based. Further details: scale not given: the % may be the effect or the level left.

Assay [29] concerns HEK293. Description: PROTAC activity at E3-ubiquitin ligase/Halo-tagged Brazilian click beetle Emerald luciferase expressed in human HEK293 cells assessed as decrease in Halo-ELuc protein level by measuring Halo-Eluc to beta-actin ratio at 1 uM incubated for 24 hrs by luciferase based Western blotting analysis (reference value: 100%). The format is cell-based. Also noted: scale not given: the % may be the effect or the level left.

Assay [30] has as its system HEK293. Description: PROTAC activity at E3-ubiquitin ligase/Halo-tagged Brazilian click beetle Emerald luciferase expressed in human HEK293 cells assessed as decrease in Halo-ELuc protein level by measuring Halo-Eluc to beta-actin ratio at 10 uM incubated for 24 hrs by luciferase based Western blotting analysis (reference value: 100%). Also noted: scale not given: the % may be the effect or the level left. The format is cell-based.

The test system of assay [31] is HEK293. The assay can be described thus: PROTAC activity at E3-ubiquitin ligase/Halo-tagged Brazilian click beetle Emerald luciferase expressed in human HEK293 cells assessed as decrease in Halo-ELuc protein level by measuring Halo-Eluc to beta-actin ratio at 20 uM incubated for 24 hrs by luciferase based Western blotting analysis (reference value: 100%). The assay is classed as cell-based. Also noted: scale not given: the % may be the effect or the level left.

For assay [32], the system named is HEK293. Description: PROTAC activity at E3-ubiquitin ligase/Halo-tagged Brazilian click beetle Emerald luciferase expressed in human HEK293 cells assessed as decrease in Halo-ELuc protein level pretreated with compound followed by 1-chlorohexane addition and measured after 24 hrs by competitive assay. The assay is classed as cell-based.
Assay [33] deals with HEK293. Description: PROTAC activity at E3-ubiquitin ligase/Halo-tagged Brazilian click beetle Emerald luciferase expressed in human HEK293 cells assessed as decrease in Halo-ELuc protein level by measuring Halo-Eluc to beta-actin ratio at 0.01 uM incubated for 24 hrs by luciferase based Western blotting analysis (reference value: 100%). The format is cell-based. Also noted: scale not given: the % may be the effect or the level left.

The subject of assay [34] is HEK293. Description: PROTAC activity at E3-ubiquitin ligase/Halo-tagged Brazilian click beetle Emerald luciferase expressed in human HEK293 cells assessed as decrease in Halo-ELuc protein level pretreated with 1-chlorohexane for 2 hrs followed by compound addition and measured after 24 hrs by competitive assay. The assay is classed as cell-based.
Assay [35] relates to MCF7. The assay can be described thus: Induction of ER-alpha degradation (unknown origin) at 30 uM in presence of 4-OHT by measuring ER-alpha to beta actin ratio incubated for 24 hrs Western blotting analysis (reference value: 100%). The format is cell-based. Conditions: Homo sapiens.

For `CC/C(=C(/c1ccc(O)cc1)c1ccc(OCCN(C)C(=O)CCC(=O)NCCOCCOCCOCCN2CCN(C3=Nc4cc(Cl)ccc4Nc4ccccc43)CC2)cc1)c1ccccc1`, the Activity is 37% in the assay with MCF7 [1]; 40% in the assay on MCF7 [2]; 41% in the assay on MCF7 [3]; 14% in the assay with MCF7 [4]; 132% in the assay with MCF7 [5]; 16% with MCF7 [6]. Besides, the Activity was 27% with MCF7 [7]; 28% in the assay with MCF7 [8]; 122% with MCF7 [9]; 116% in the assay with MCF7 [10]; 152% with MCF7 [11]; 160% with MCF7 [12]. Moreover, the Activity worked out at 104% in the assay on MCF7 [13]; 33% in the assay with MCF7 [14]; 42% with MCF7 [15]; 27% in the assay on MCF7 [16]; 1% in the assay on MCF7 [17]; 148% with MCF7 [18]. Moreover, the Activity was 160% with MCF7 [19]; 51% with MCF7 [20]; 163% in the assay on MCF7 [21]; 45% in the assay with MCF7 [22]; “Dose-dependent-effect” in the assay on MCF7 [23]; 121% in the assay on MCF7 [24]. In addition, the Activity in the assay on MCF7 [25] came out at 21%; in the assay on MCF7 [26], 51%.

As for `CC/C(=C(\c1ccc(O)cc1)c1ccc(OCCN(C)C)cc1)c1ccccc1`, the Activity in the assay on MCF7 [27] came out at 116%.

Regarding `ClCCCCCCOCCOCCN1CCN(C2=Nc3cc(Cl)ccc3Nc3ccccc32)CC1`, the Activity in the assay on HEK293 [28] is 97%; in the assay on HEK293 [29], 57%; in the assay with HEK293 [30], 32%; in the assay with HEK293 [31], 22%; with HEK293 [32], “Not active; Complete Recovery Of Luminescence Not Observed”; with HEK293 [33], 103%. In addition, the outcome in the assay with HEK293 [34] was inactive.

Consider `CN1CCN(C2=Nc3cc(Cl)ccc3Nc3ccccc32)CC1`, for which the Activity with MCF7 [27] came out at 104%; in the assay on MCF7 [35] it was 91%.
